From ChEMBL document CHEMBL1201862, “PubChem BioAssay data set” (2004) come the findings set out here.

Each structure is given as a SMILES string.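 A five-concentration, 48-hour dose response in 96-well plates underlies each endpoint, interpolated linearly between surrounding concentrations. GI50 is the concentration that inhibits growth by half.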 Calls of active or inactive are those of the source. No stated cut-off is given here; in the data, active = GI50 up to about 1.1 µM and inactive = higher.

Among the test systems are NCI-H23; UO-31; NCI-H226; Malme-3M; OVCAR-4; CAKI-1; SK-MEL-28; NCI-H460; 786-0; TK-10; HL-60; OVCAR-8; MOLT-4; UACC-62; K562; MDA-MB-435; DU-145; MDA-MB-231.
Assay in all cases: DTP human tumour cell line panel, 48 h

`O=C1COc2cc(NC(=S)Nc3ccccc3)ccc2N1`: the GI50 with NCI-H23, in the test with UO-31, with NCI-H226, in the test on Malme-3M, with OVCAR-4 and in the test on CAKI-1 was > 100 µM (inactive) throughout. For the same molecule, the GI50 in the test on SK-MEL-28, in the test with NCI-H460, with 786-0, in the test on TK-10, in the test on HL-60 and with OVCAR-8 was > 100 µM (inactive) in each case. Also, the GI50 in the test with MOLT-4, in the test with UACC-62 and in the test with K562 was > 100 µM (inactive) throughout.

Regarding `COc1ccc(/C=C/[N+](=O)[O-])cc1`, the GI50 was 9.75 µM (inactive) in the test on NCI-H23; 11.3 µM (inactive) in the test on UO-31; 3.6 µM (inactive) in the test with NCI-H226; 19.1 µM (inactive) in the test with Malme-3M; 1.86 µM (inactive) in the test on MDA-MB-435; 16.7 µM (inactive) with OVCAR-4. Further, the GI50 in the test with SK-MEL-28 is 5.81 µM (inactive); with NCI-H460, 6.9 µM (inactive); in the test on 786-0, 3.75 µM (inactive); in the test with TK-10, 13 µM (inactive); with HL-60 it was 2.77 µM (inactive); with OVCAR-8, 2.67 µM (inactive). In addition, the GI50 is 2.8 µM (inactive) with MOLT-4; 14.9 µM (inactive) in the test with UACC-62; 3.53 µM (inactive) in the test on K562; 6.52 µM (inactive) in the test with DU-145; 19.4 µM (inactive) in the test on MDA-MB-231.

On to `COc1ccc(-n2nnnc2C2(Nc3ccccc3)CCN(Cc3ccccc3)CC2)cc1`, for which the GI50 was 21 µM (inactive) in the test with NCI-H23; 7.48 µM (inactive) in the test with UO-31; 25.2 µM (inactive) in the test with NCI-H226; 13.4 µM (inactive) with Malme-3M; 3.29 µM (inactive) with MDA-MB-435; 21.3 µM (inactive) in the test with OVCAR-4. Moreover, the GI50 in the test on SK-MEL-28 is 13.5 µM (inactive); with NCI-H460, 11.2 µM (inactive); in the test with 786-0, 13.6 µM (inactive); in the test on TK-10 it was 12.4 µM (inactive); in the test with HL-60 it was 2.56 µM (inactive); in the test with OVCAR-8 it was 19 µM (inactive). For the same molecule, the GI50 is 5.04 µM (inactive) in the test with MOLT-4; 10.5 µM (inactive) in the test on UACC-62; 3.13 µM (inactive) in the test with K562; 24.9 µM (inactive) in the test with DU-145; 10.4 µM (inactive) in the test with MDA-MB-231.

Regarding `CC(NC1=NCCO1)c1cccs1` (stereo unspecified), the GI50 in the test with NCI-H23 was 50.2 µM (inactive); in the test on UO-31, 24.9 µM (inactive); with NCI-H226 it was 46.8 µM (inactive); in the test on Malme-3M it was 21.4 µM (inactive); in the test on MDA-MB-435, 19.7 µM (inactive); in the test on OVCAR-4, 30.8 µM (inactive). Also, the GI50 is 23.1 µM (inactive) with SK-MEL-28; 28.8 µM (inactive) with NCI-H460; 17.1 µM (inactive) in the test with 786-0; > 100 µM (inactive) in the test on TK-10; 17.9 µM (inactive) with HL-60; 41 µM (inactive) in the test on OVCAR-8. Also, the GI50 in the test on MOLT-4 is 22.1 µM (inactive); in the test on UACC-62, 16.5 µM (inactive); in the test with K562, 22.1 µM (inactive); in the test with DU-145, 87.9 µM (inactive); in the test on MDA-MB-231, 76.7 µM (inactive).

Take `O=C1C2=C(c3ccccc31)C(c1ccc(F)cc1)N1C(=O)CCSC1=N2` (stereo unspecified): the GI50 in the test on NCI-H23 was > 100 µM (inactive); in the test on UO-31, 39.9 µM (inactive); in the test on NCI-H226 it was 93.3 µM (inactive); in the test with Malme-3M, > 100 µM (inactive); in the test with OVCAR-4, 56 µM (inactive); in the test with CAKI-1, 69 µM (inactive). Further, the GI50 is > 100 µM (inactive) with SK-MEL-28; > 100 µM (inactive) in the test with NCI-H460; > 100 µM (inactive) with 786-0; > 100 µM (inactive) with TK-10; 65.6 µM (inactive) with HL-60; > 100 µM (inactive) in the test on OVCAR-8. Also, the GI50 in the test on MOLT-4 is 64.6 µM (inactive); in the test on UACC-62, 62.1 µM (inactive); with K562, > 100 µM (inactive).

`COc1ccc(/C(Cl)=C(\C=N/O)c2ccc(OC)c(OC)c2)cc1OC`: the GI50 in the test with NCI-H23, in the test on UO-31, in the test on NCI-H226, with Malme-3M, in the test with OVCAR-4 and in the test on CAKI-1 was > 100 µM (inactive) in each case. For the same molecule, the GI50 in the test with SK-MEL-28, in the test with NCI-H460, in the test with 786-0, with TK-10, in the test on HL-60 and in the test with OVCAR-8 was > 100 µM (inactive) in each case. Besides, the GI50 with MOLT-4, with UACC-62 and in the test with K562 was > 100 µM (inactive) each time.

Regarding `CC/C=C1\N=C(c2ccc(Cl)cc2)OC1=O`, the GI50 in the test on NCI-H23, in the test with UO-31, in the test with NCI-H226, with Malme-3M, in the test with OVCAR-4 and in the test with CAKI-1 was > 100 µM (inactive) throughout. Besides, the GI50 with SK-MEL-28, in the test on NCI-H460, in the test on 786-0, with TK-10, in the test with HL-60 and in the test with OVCAR-8 was > 100 µM (inactive) throughout. Moreover, the GI50 with MOLT-4, in the test on UACC-62 and in the test on K562 was > 100 µM (inactive) each time.

In the case of `NC1=C(Br)C(=O)c2ncccc2C1=O`, the 50% growth inhibitory concentration (GI50) in the test with NCI-H23 was 0.156 µM (active); in the test on UO-31, 0.316 µM (active); in the test with NCI-H226, 1.69 µM (inactive); with Malme-3M, 0.466 µM (active); in the test with OVCAR-4, 1.37 µM (inactive); in the test on CAKI-1 it was 1.51 µM (inactive). For the same molecule, the GI50 in the test with SK-MEL-28 was 0.34 µM (active); in the test on NCI-H460, 0.393 µM (active); in the test with 786-0 it was 1.51 µM (inactive); in the test on TK-10, 2.62 µM (inactive); in the test with HL-60, 0.505 µM (active); with OVCAR-8 it was 0.531 µM (active). Further, the values for the GI50 in the test on MOLT-4, in the test with UACC-62 and with K562 were 1.63 µM (inactive), 0.232 µM (active) and 0.277 µM (active), respectively.

For the molecule `Nc1nc(SCCNC(=O)CCc2ccc(O)cc2)nc2c1ncn2C1OC(CO)C(O)C1O` (stereo unspecified), the GI50 with NCI-H23, in the test on UO-31, in the test on NCI-H226, with Malme-3M, in the test with OVCAR-4 and with CAKI-1 was > 203 µM (inactive) in each case. Also, the GI50 in the test on SK-MEL-28, with NCI-H460, with 786-0, in the test on TK-10, with HL-60 and with OVCAR-8 was > 203 µM (inactive) each time. Also, the GI50 with MOLT-4, in the test on UACC-62 and in the test on K562 was > 203 µM (inactive) each time.
